The conditions of data set [1]: equilibrium H3P^5+ = H2P^4+ + H^+; cited from earlier work.
Data set [2] can be described thus: Thin-layer chromatography, retention factor Rf as lipophilicity. Conditions: silica gel TLC plates, 1:1:8 KNO3-saturated H2O:H2O:acetonitrile; for Rf (compound path/solvent path): Mn(III) complex; for Rf (compound path/solvent path), metal-free porphyrin (in parentheses): corresponding metal-free porphyrin H2T(alkyl)-2-PyP^4+. The format is physicochemical. An excerpt:
Thin-layer chromatography. All ligands and their Mn(III) complexes were chromatographed on silica gel TLC plates using 1:1:8 KNO3-saturated H2O:H2O: acetonitrile. The atropoisomers could not be separated for the methyl^19 and ethyl analogues,^24 they begin to separate for the n-propyl and n-butyl species and were clearly resolved with the n-hexyl and n-octyl compounds.
Thin Layer Chromatography. The increase in the length of the alkyl chains is accompanied by an increase in the lipophilicity of the compounds as indicated by the increase in the retention factor Rf (porphyrin path/solvent path) (Table 1, FIG. 2). […] As the chains lengthen, their contribution to the overall lipophilicity increases, and eventually the n-octyl porphyrin and its Mn(III) complex are more alike in Rf than are methyl analogues.

The nature of data set [3]: Spectrophotometric proton dissociation constant pKa2. It counts as physicochemical. The following applies: of the metal-free porphyrin H2T(alkyl)-2-PyP^4+; 25° C., ionic strength 0.10 (NaNO3/NaOH). How it is done: Uv/vis spectroscopy. The uv/vis spectra were taken on a Shimadzu UV-2501 PC spectrophotometer at 25° C. The proton dissociation constants (pKa2), were determined spectrophotometrically at 25° C., at an ionic strength of 0.1 M (NaOH/NaNO3), as previously described.^4
The proton dissociation constants, Ka2 and Ka3 are defined as follows: H2P^4+ ? HP^3++H^+Ka2 [1] H3P^5+ ? H2P^4++H^+ Ka3 [2] As the alkyl chains lengthen the porphyrins become less hydrated and the separation of charges (eq) becomes less favorable, ie. pKa2 increases (FIG. 3 insert).

The nature of data set [4]: Cyclic voltammetry, metal-centered redox potential E1/2 of Mn(III)/Mn(II) couple. The format is physicochemical. Conditions: 0.05 M phosphate buffer (pH 7.8, 0.1 M NaCl). How it is done: Electrochemistry. Measurements were performed on a CH Instruments Model 600 Voltammetric Analyzer.^3.4 A three-electrode system in a small volume cell (0.5 mL to 3 mL), with a 3 mm-diameter glassy carbon button working electrode (Bioanalytical Systems), plus the Ag/AgCl reference and Pt auxilliary electrodes was used. Solutions contained 0.05 M phosphate buffer, pH 7.8, 0.1 M NaCl, and […] metalloporphyrin. The scan rates were 0.01-0.5 V/s, typically 0.1 V/s. The potentials were standardized against the potassium ferrocyanide/ferricyanide^20 and/or against Mn^IIITE-2-PyP^5+. All voltammograms were reversible.
Electrochemistry. […] The metal-centered redox potentials, E1/2 are in Table 1 and the representative voltammograms of the Mn^III/IITE-2-PyP^5+/4+ and Mn^III/IITnHex-2-PyP^5+/4+ compounds are shown in the Supporting Material, FIG. 6. Both lipophilicity (FIG. 2B) and E1/2 (FIG. 3B, insert) increase exponentially with the number of CH2 groups in the alkyl chains. Consequently, the increase in E1/2 is a linear function of Rf (FIG. 3B).

A short description of data set [5]: Catalysis of O2^− dismutation, cytochrome c assay (xanthine/xanthine oxidase). The format is biochemical. Conditions: 0.05 M phosphate buffer, pH 7.8, (25 ± 1) ° C. The source says:
Catalysis of O2^− dismutation. We have previously shown that the O2^− /cytochrome c reduction assay gives the same catalytic rate constants as does pulse radiolysis for Mn^IIITE-2-PyP^5+, {Mn^IIIBVDME}2, {Mn^IIIBV}2 and MnCl2.^21 Therefore the convenient cytochrome c assay was used to characterize the series of Mn(III) N-alkylpyridylporphyrins. The xanthine/xanthine oxidase reaction was the source of O2^− and ferricytochrome c was used as the indicating scavenger for O2^−.^22 The reduction of cytochrome c was followed at 550 nm. Assays were conducted at (25±1) ° C., in 0.05 M phosphate buffer, pH 7.8, 0.1 mM EDTA, in the presence and absence of 15 μg/mL of catalase. Rate constants for the reaction of metalloporphyrins with O2′^− were based upon competition with 10 μM cytochrome c, kcyt c=2.6×10^5 M^−1 s^−1 as described elsewhere.^21 The O2^− was produced at the rate of 1.2 μM per minute. Any possible interference through inhibition of the xanthine/xanthine oxidase reaction by the test compounds was examined by following the rate of urate accumulation at 295 nm in the absence of cytochrome c. No reoxidation of cytochrome c by the metalloporphyrins was observed
Catalysis of O2^− dismutation. […] All of the manganese compounds are potent catalysts of O2^− dismutation with log kcat between 7.79 and 7.25.

Data set [6] in a line: Mn loss from Mn porphyrins in 12 M HCl. The format is physicochemical. How it is done: The half-lives for the acid and anion-catalyzed removal of zinc from Zn N-methylated derivatives^35 in 1.0 M HNO3 were 89 s for the meta, 165 s for the para, and 19 hours for the ortho ZnTM-2-PyP^4+. […] In addition to porphyrin ring distortion,^29-32 the steric hindrance and solvation effects imposed by the progressively longer alkyl chains may also contribute to the differences in metaladon/demetalation behavior.

For data set [7], the system named is SOD-deficient Escherchia coli. Conditions: aerobic conditions; cited from earlier work.
The conditions of data set [8]: stroke, diabetes, sickle cell disease, cancer/radiation; cited from earlier work.
Data set [9] is described as follows: Stability of reduced Mn(II) porphyrins in excess ascorbic acid. Conditions: aerobic, within 125 min; 6 μM, 70-fold excess of ascorbic acid, pH 7.8, 0.1 M tris buffer; reduced Mn(II) form.
Protocol: Therefore, we also examined the behavior of the reduced and more biologically relevant Mn^IIT(alkyl)-2-PyP^4+ compounds. We compared the methyl, n-hexyl and n-octyl derivatives (6 μM) aerobically and anaerobically in the presence of a 70-fold excess of ascorbic acid (pH 7.8, 0.1 M tris buffer) and in the presence and absence of a 150-fold excess of EDTA.
For data set [10] the following is noted: 1.0 M HNO3, within a week; cited from earlier work.
For data set [11] the following is noted: kcat=kred=kox; cited from earlier work.

Data on 9 compounds can be found in patent US7485721B2, “Substituted porphyrins” (Duke University, priority 2002, dated 2009).

With `C[n+]1cccc(-c2c3nc(c(-c4ccc[n+](C)c4)c4ccc([nH]4)c(-c4ccc[n+](C)c4)c4nc(c(-c5ccc[n+](C)c5)c5ccc2[nH]5)C=C4)C=C3)c1` [H2TM-3-PyP^4+], in [1], the pKa3 is recorded as 1.8.
On to `C[n+]1ccc(-c2c3nc(c(-c4cc[n+](C)cc4)c4ccc([nH]4)c(-c4cc[n+](C)cc4)c4nc(c(-c5cc[n+](C)cc5)c5ccc2[nH]5)C=C4)C=C3)cc1` [H2TM-4-PyP^4+], for which the pKa3 in data set [1] was 1.4.
Take `C[n+]1ccccc1-c1c2nc(c(-c3cccc[n+]3C)c3ccc([nH]3)c(-c3cccc[n+]3C)c3nc(c(-c4cccc[n+]4C)c4ccc1[nH]4)C=C3)C=C2.[Mn+3]` [Mn^IIITM-2-PyP^5+, Mn(III) meso tetrakis(N-methylpyridinium-2-yl)porphyrin]: in data set [2], the “Rf (compound path/solvent path)” value worked out at 0.09 and the “Rf (compound path/solvent path), metal-free porphyrin (in parentheses)” value came out at 0.13. This compound showed a pKa2 in data set [3] of 10.9. The E1/2 entry in data set [4] is on record as “+220 mV vs NHE”. For the same compound, the log kcat in data set [5] is reported as 7.79. For the same compound, the Mn lost entry in data set [6] (12 M HCl, within a month) is recorded as “over 50%”. For the same compound, in [7], the “growth of SOD-deficient E. coli” value is listed as “allow SOD-deficient Escherchia coli to grow under aerobic conditions”. In addition, the “protection in rodent models of oxidative stress” value in data set [8] was “offer protection in rodent models of oxidative stress”. In data set [9], the “degradation of Mn(II) porphyrin” value is −40%.
Regarding `CCCC[n+]1ccccc1-c1c2nc(c(-c3cccc[n+]3CCCC)c3ccc([nH]3)c(-c3cccc[n+]3CCCC)c3nc(c(-c4cccc[n+]4CCCC)c4ccc1[nH]4)C=C3)C=C2.[Mn+3]` [Mn^IIITnBut-2-PyP^5+], in [2], the “Rf (compound path/solvent path)” value is 0.33 and the “Rf (compound path/solvent path), metal-free porphyrin (in parentheses)” value stood at 0.46. In data set [3], the pKa2 is listed as 11.7. Further, in data set [4], the E1/2 entry is “+254 mV vs NHE”. The compound also showed a log kcat in data set [5] of 7.25.
Turning to `CCCCCC[n+]1ccccc1-c1c2nc(c(-c3cccc[n+]3CCCCCC)c3ccc([nH]3)c(-c3cccc[n+]3CCCCCC)c3nc(c(-c4cccc[n+]4CCCCCC)c4ccc1[nH]4)C=C3)C=C2.[Mn+3]` [Mn^IIITnHex-2-PyP^5+], in data set [2], the “Rf (compound path/solvent path)” value is listed as 0.57 and the “Rf (compound path/solvent path), metal-free porphyrin (in parentheses)” value is given as 0.63. The compound further displayed a pKa2 in [3] of 12.2. Moreover, in data set [4], the E1/2 result is “+314 mV vs NHE”. This compound registered a log kcat in [5] of 7.48. The “spectral change (Mn loss)” value in data set [6] (solid dissolved in 12 M HCl, 3 months) is “the spectra did not change within 3 months”. Further, in [9], the “degradation of Mn(II) porphyrin” value is on record as “none”.
Regarding `CCCCCCCC[n+]1ccccc1-c1c2nc(c(-c3cccc[n+]3CCCCCCCC)c3ccc([nH]3)c(-c3cccc[n+]3CCCCCCCC)c3nc(c(-c4cccc[n+]4CCCCCCCC)c4ccc1[nH]4)C=C3)C=C2.[Mn+3]` [Mn^IIITnOct-2-PyP^5+], in data set [2], the “Rf (compound path/solvent path)” value turned out to be 0.80 and the “Rf (compound path/solvent path), metal-free porphyrin (in parentheses)” value came to 0.86. The compound further registered a pKa2 in data set [3] of 13.2. Besides, in [4], the E1/2 entry is “+367 mV vs NHE”. The compound also had a log kcat in [5] of 7.71. In addition, the “degradation of Mn(II) porphyrin” value in data set [9] was “none”.
With `CCCCCC[n+]1ccccc1-c1c2nc(c(-c3cccc[n+]3CCCCCC)c3ccc([nH]3)c(-c3cccc[n+]3CCCCCC)c3nc(c(-c4cccc[n+]4CCCCCC)c4ccc1[nH]4)C=C3)C=C2.[Zn+2]` [ZnTnHex-2-PyP^4+], the zinc loss entry in [10] is “No indication of zinc loss was found within a week”.
As to “CuZn—SOD: CuZn superoxide dismutase enzyme”, the kcat in [11] is 2e+09 M⁻¹ s⁻¹.
Consider “meso tetrakis(N-ethylpyridinium-2-yl)porphyrins [Mn^IIITE-2-PyP^5+]”, for which, in [2], the “Rf (compound path/solvent path)” value worked out at 0.13 and the “Rf (compound path/solvent path), metal-free porphyrin (in parentheses)” value came out at 0.21. Besides, the pKa2 in data set [3] is on record as 10.9. Also, the E1/2 result in data set [4] is “+228 mV vs NHE”. This compound registered a log kcat in data set [5] of 7.76. In data set [7], the “growth of SOD-deficient E. coli” value was “allow SOD-deficient Escherchia coli to grow under aerobic conditions”. For the same compound, the “protection in rodent models of oxidative stress” value in [8] is “offer protection in rodent models of oxidative stress”.
